Assay results from article PMC3584109, “Protective Effect of Borage Seed Oil and Gamma Linolenic Acid on DNA: In Vivo and In Vitro Studies” (PLoS ONE, 2013).
Where two headings read alike, the source gives them in different places. Marks after values point to notes of the source that are not given here. Each block holds one compound with its values, some of them ahead of it.

Assays:
[1] = test system: leukocytes (HL-60, Jurkat and Raji cells); set-up: method as in PMID 12489694; settings: cited from earlier work
[2] = test system: human hepatoma HepG2 cells (E9 cells); set-up: method as in PMID 9660301; settings: cited from earlier work
HL60 cells = assay: Cytotoxicity assay, Trypan Blue dye exclusion; assay type: cell-based; settings: Homo sapiens, HL-60, 72 h, read-out: IC50 (concentration causing 50% inhibition of cell growth)
Procedure: The human promyelocytic leukaemia cell line HL60 was obtained from Dr. José M. Villalba Montoro (Department of Cell Biology, Univ. Cordoba, Spain), [34]. HL60 cells were incubated in RPMI-1640 medium (Cat N° A1049101, Invitrogen) supplemented with: L-glutamine 200 mM, (Cat N° G7513, Sigma-Aldrich, St. Louis, MO) antibiotics 100× (Cat N° A5955, Sigma-Aldrich, St. Louis, MO) and 10% heat-inactivated foetal bovine serum (Cat N° SO1805, Linus). Cells were maintained at 37°C in an atmosphere of 5% CO2. Cultures were plated at a density of 12.5×10^4cells/ml in 40 ml culture bottles (25 cm^2) and passed every 2 days.
For the assessment of cell viability, HL60 cells were placed in 12 well culture plates (1×10^5 cells/ml) and treated for 72 h with increasing concentrations of borage seed oil and GLA. Cell viability was determined by the Trypan Blue dye exclusion test (T8154, Sigma-Aldrich, St. Louis, MO). Cells were counted by adding an aliquot of 10 µl of the culture to 10 µl of the Trypan Blue dye. The mix was counted under a light inverted microscope using a Neubauer chamber (AE30/31, Motic). Aliquots were taken after 24, 36, 48, 60 and 72 h incubation. […] Curves are expressed as the percentage of survival with respect to controls at 72 h of growth. […]

D. melanogaster [3] = settings: for % of inhibition: calculated according to Abraham (1994)
Procedure: (§1) Analysis of the genotoxic and antigenotoxic activities of borage seed oil and GLA, was evaluated by the Drosophila SMART test. Two different Drosophila melanogaster strains carrying visible wing genetic markers were used: the flare (flr) strain flr^3/ln (3LR) TM3, Bd^s and the multiple wing-hair (mwh) strain mwh/mwh. The marker multiple wing hairs (mwh, 3_0.3) is a recessive mutation that is viable in homozygous flies, producing multiple hairs per cell instead of the wild type single-hair trichome. The marker flare (flr^3, 3_38.3) is a recessive mutation which produces individual wing hairs that are malformed. The flr^3 allele is retained via a balancer chromosome carrying multiple inversions and a dominant marker which is homozygous lethal (TM3, Bd^S: Third Multiple 3, Beaded-Serrate). Additional information on genetic markers can be found in [31].
(§2) Crosses were performed with optimally fertile virgin females of the flr3/TM3, Bd^s strain and mwh/mwh males. After 8 h egg-laying, 72±3 h old larvae were washed in distilled water, transferred to fresh vials with 0.85 g Drosophila Instant Medium (formula 4–24, Carolina Biological Supply, Burlington NC, USA) which were wetted with 4 ml after of put solutions of increasing concentrations of the borage seed oil and GLA. Test groups consisting of 100 larvae each were: (i) negative control (distilled water); (ii) mutagenic positive control (hydrogen peroxide 0.12 M); (iii) 5 vials with increasing concentrations of borage seed oil (12.5, 18.7, 31.2, 62.5 and 125 µl/ml); and (iv) 5 vials with increasing concentrations of GLA (8.9, 13, 22, 45 and 90 mM). Taking into account the average daily food intake of D. melanogaster (1 mg/day) and the average body weight of D. melanogaster individuals (1 mg), the concentration range for both borage seed oil and GLA were calculate to fit them into the recommended fat daily intake for humans (60 g of total fat/day for 60 kg human body weight). Emerging adults of all groups were counted and stored in 70% ethanol to be analysed. Procedures are: 1) Toxicity assays evaluated (number of individuals born in treatment/number of individuals born in the negative control)x100. 2) Genotoxicity assays evaluated mutation rate diagnosis of different groups and 3) Antigenotoxicity testing, combined treatments were performed as previously described by Anter et al., 2011 [32], by using hydrogen peroxide 0.12 M as the genotoxicant and the concentrations of borage seed oil and GLA mentioned above in groups (iii) and (iv), evaluating mutation rate diagnosis of different treatments.
(§3) Marker-heterozygous genotypes (mwh/flr^3) were mounted on slides with Faurés solution. Both dorsal and ventral surfaces of the wings containing 22,000 cells were screened under a photonic microscope at 400× magnification for the occurrence of individual spots (mwh or flr phenotype) or twin spots (mwh clone adjacent to flr clone). […] Large individual spots with three or more cells showing mwh or flr phenotypes corresponded to mutational events occurring earlier during larvae development. Twin spots with two juxtaposed clones corresponded uniquely to recombination events between the flr^3 gene and the centromere.
(§4) For the evaluation of genotoxic effects, the frequencies of spots per fly of each treated series were compared to the concurrent negative control for each class of mutational clone. A multiple-decision procedure was used to categorize results as positive, weakly positive, inconclusive, or negative. Statistical analyses were carried out for single, large, twin and total number of spots recovered. Inconclusive and positive data were evaluated by the non-parametric U test of Mann, Whitney and Wilcoxon according to Frei and Würgler 1995 [36]. The inhibition percentage for each compound and treatment was calculated following Abraham, 1994 [37] (hydrogen peroxide alone - substance assayed + hydrogen peroxide / hydrogen peroxide alone) × 100.

D. melanogaster [4] = assay: Toxicity assay: survival of adults from treated 72 h old larvae; assay type: in vivo, Drosophila melanogaster; settings: for average toxicities (survival): average over tested concentrations
Procedure: Crosses were performed with optimally fertile virgin females of the flr3/TM3, Bd^s strain and mwh/mwh males. After 8 h egg-laying, 72±3 h old larvae were washed in distilled water, transferred to fresh vials with 0.85 g Drosophila Instant Medium (formula 4–24, Carolina Biological Supply, Burlington NC, USA) which were wetted with 4 ml after of put solutions of increasing concentrations of the borage seed oil and GLA. […] Taking into account the average daily food intake of D. melanogaster (1 mg/day) and the average body weight of D. melanogaster individuals (1 mg), the concentration range for both borage seed oil and GLA were calculate to fit them into the recommended fat daily intake for humans (60 g of total fat/day for 60 kg human body weight). Emerging adults of all groups were counted and stored in 70% ethanol to be analysed. Procedures are: 1) Toxicity assays evaluated (number of individuals born in treatment/number of individuals born in the negative control)x100.

D. melanogaster [5] = settings: in vivo
Procedure: as §1, §2, §3, §4

D. melanogaster [6] = assay: Longevity assay (life span and health span); assay type: in vivo, Drosophila melanogaster; settings: all assayed concentrations of GLA
Procedure: The F1 progeny from […]^3 parental strains produced by 24 h egg-laying in yeast was used. Longevity experiments were carried out at 25°C, following the procedure described by Chavous et al., 2001 [33]. Briefly, synchronised transheterozygous 72±12 h old larvae were washed in distilled water and separated into groups of 100 individuals in vials with a mixture of 0.85 g Drosophila Instant Medium and 4 ml of the different concentrations of the two substances selected. […] Three replicates were used during the complete life span for each control and concentration established. The number of survivors was counted and the medium renewed twice a week. In addition, the Kaplan-Meier estimates of the survival function for each concentration and respective control are plotted as survival curves. Statistical analyses and significance of the curves were assessed using the SPSS 15.0 statistics software (SPSS Inc. Headquarters, Chicago, IL, USA) using the Log-Rank (Mantel-Cox) method.

SMILES: CCCCC/C=C\C/C=C\C/C=C\C/C=C\CCCC(=O)O [arachidonic acid]
concentrations with necrotic effect ([1]; high concentrations): 400 to 1600 µM
concentrations with apoptotic effect ([1]; low concentrations): 10 to 400 µM
toxicity to E9 cells ([2]; pretreatment with 0.03 mM): significant toxicity

weighted average of induced spots/wing (D. melanogaster [5]; Drosophila melanogaster): 0.23 spots/wing
SMILES: CCCCC/C=C\C/C=C\C/C=C\CCCCC(=O)O [GLA, all cis-6,9,12-octadecatrienoic acid]
IC50 (HL60 cells): 87 µM
Mutation rate (Spots per wing) Large single spots (>2 cells) m = 5 (D. melanogaster [3]; GLA 8.9 mM + H2O2 0.12 M): 0.02 (1) spots per wing
Mutation rate (Spots per wing) Small single spots (1–2 cells) m = 2 (D. melanogaster [3]; GLA 8.9 mM + H2O2 0.12 M): 0.3 (15) spots per wing
Mutation rate (Spots per wing) Total spots m = 2 (D. melanogaster [3]; GLA 8.9 mM + H2O2 0.12 M): 0.32 spots per wing
Mutation rate (Spots per wing) Twin spots m = 5 (D. melanogaster [3]; GLA 8.9 mM + H2O2 0.12 M): 0 spots per wing
% of inhibition (D. melanogaster [3]; GLA 8.9 mM + H2O2 0.12 M): 37%
Mutation rate (Spots per wing) Large single spots (>2 cells) m = 5 (D. melanogaster [3]; GLA 13 mM + H2O2 0.12 M): 0 spots per wing
Mutation rate (Spots per wing) Small single spots (1–2 cells) m = 2 (D. melanogaster [3]; GLA 13 mM + H2O2 0.12 M): 0.25 (3) spots per wing
Mutation rate (Spots per wing) Total spots m = 2 (D. melanogaster [3]; GLA 13 mM + H2O2 0.12 M): 0.25 spots per wing
Mutation rate (Spots per wing) Twin spots m = 5 (D. melanogaster [3]; GLA 13 mM + H2O2 0.12 M): 0 spots per wing
% of inhibition (D. melanogaster [3]; GLA 13 mM + H2O2 0.12 M): 51%
Mutation rate (Spots per wing) Large single spots (>2 cells) m = 5 (D. melanogaster [3]; GLA 22 mM + H2O2 0.12 M): 0 spots per wing
Mutation rate (Spots per wing) Small single spots (1–2 cells) m = 2 (D. melanogaster [3]; GLA 22 mM + H2O2 0.12 M): 0.39 (11) spots per wing
Mutation rate (Spots per wing) Total spots m = 2 (D. melanogaster [3]; GLA 22 mM + H2O2 0.12 M): 0.42 spots per wing
Mutation rate (Spots per wing) Twin spots m = 5 (D. melanogaster [3]; GLA 22 mM + H2O2 0.12 M): 0.03 (1) spots per wing
% of inhibition (D. melanogaster [3]; GLA 22 mM + H2O2 0.12 M): 17%
Mutation rate (Spots per wing) Large single spots (>2 cells) m = 5 (D. melanogaster [3]; GLA 45 mM + H2O2 0.12 M): 0.03 (1) spots per wing
Mutation rate (Spots per wing) Small single spots (1–2 cells) m = 2 (D. melanogaster [3]; GLA 45 mM + H2O2 0.12 M): 0.19 (5) spots per wing
Mutation rate (Spots per wing) Total spots m = 2 (D. melanogaster [3]; GLA 45 mM + H2O2 0.12 M): 0.26 spots per wing
Mutation rate (Spots per wing) Twin spots m = 5 (D. melanogaster [3]; GLA 45 mM + H2O2 0.12 M): 0.03 (1) spots per wing
% of inhibition (D. melanogaster [3]; GLA 45 mM + H2O2 0.12 M): 49%
Mutation rate (Spots per wing) Large single spots (>2 cells) m = 5 (D. melanogaster [3]; GLA 90 mM + H2O2 0.12 M): 0.06 (1) spots per wing
Mutation rate (Spots per wing) Small single spots (1–2 cells) m = 2 (D. melanogaster [3]; GLA 90 mM + H2O2 0.12 M): 0.18 (3) spots per wing
Mutation rate (Spots per wing) Total spots m = 2 (D. melanogaster [3]; GLA 90 mM + H2O2 0.12 M): 0.25 spots per wing
Mutation rate (Spots per wing) Twin spots m = 5 (D. melanogaster [3]; GLA 90 mM + H2O2 0.12 M): 0 spots per wing
% of inhibition (D. melanogaster [3]; GLA 90 mM + H2O2 0.12 M): 51%
antigenotoxicity (D. melanogaster [3]; compared to hydrogen peroxide): antimutagenic
inhibitory potential against hydrogen peroxide, weighted average (D. melanogaster [3]; over all concentrations): 38.1%
Survival % Simple treatment (D. melanogaster [4]; GLA 8.9 mM (lowest concentration)): 99%
Survival % Simple treatment (D. melanogaster [4]; GLA 8.9 mM (lowest concentration), listed as Gamma-linolenic acid): 99.25%
Survival % Combined Treatment (D. melanogaster [4]; GLA 8.9 mM + 0.12 M hydrogen peroxide): 48.88*** %
Survival % Simple treatment (D. melanogaster [4]; GLA 13 mM): 66.66*** %
Survival % Combined Treatment (D. melanogaster [4]; GLA 13 mM + 0.12 M hydrogen peroxide): 22.22*** %
Survival % Simple treatment (D. melanogaster [4]; GLA 22 mM): 39.25*** %
Survival % Combined Treatment (D. melanogaster [4]; GLA 22 mM + 0.12 M hydrogen peroxide): 39.25*** %
Survival % Simple treatment (D. melanogaster [4]; GLA 45 mM): 50.37*** %
Survival % Combined Treatment (D. melanogaster [4]; GLA 45 mM + 0.12 M hydrogen peroxide): 37.77*** %
Survival % Simple treatment (D. melanogaster [4]; GLA 90 mM): 20.74*** %
Survival % Combined Treatment (D. melanogaster [4]; GLA 90 mM + 0.12 M hydrogen peroxide): 32.59*** %
decrease in survival (D. melanogaster [4]; GLA, next higher concentration after the lowest (13 mM)): 66%
toxicity to D. melanogaster (D. melanogaster [4]; lowest concentration of GLA): non-toxicity
average toxicities (survival) (D. melanogaster [4]; plus hydrogen peroxide as a toxicant): 31%
average toxicities (survival) (D. melanogaster [4]; simple treatment): 55%
genotoxicity (D. melanogaster [5]): non-genotoxic
effect on life span (D. melanogaster [6]): decreased the mean survival time significantly

SMILES: CCCCCCCC/C=C\CCCCCCCC(=O)O [oleic acid, cis-9 octadecenoic]
toxicity to E9 cells ([2]; 0.05 mM): no significant toxicity

SMILES: OO [hydrogen peroxide]
Total spots diagnosis (D. melanogaster [3]; in vivo): +
Survival percentage for 0.12 M hydrogen peroxide alone treatments (D. melanogaster [4]; 0.12 M hydrogen peroxide alone): 84.44^(4) %
Mutation rate (Spots per wing) Large single spots (>2 cells) m = 5 (D. melanogaster [5]): 0.03 (12) spots per wing
Mutation rate (Spots per wing) Small single spots (1–2 cells) m = 2 (D. melanogaster [5]): 0.46 (126) spots per wing
Mutation rate (Spots per wing) Total spots m = 2 (D. melanogaster [5]): 0.51 spots per wing
Mutation rate (Spots per wing) Twin spots m = 5 (D. melanogaster [5]): 0.01 (3) spots per wing
N° of emerging adults (D. melanogaster [5]): 328
Total spots diagnosis (D. melanogaster [5]): +
